In this test the test system is Plasmodium berghei. Nature of the test: Luciferase/luciferin-expressing antifolate-resistant parasites were used to infect a culture of HepG2 cells that were pre-incubated with compounds. Infected hepatocytes emit light due to the luciferase reaction. Assay results are presented as the percent inhibition of light emission compared to control. […]. It is filed as functional. Conditions: sporozoite; for IC90: read-out: LUCIFERASE INFECTION ASSAY - IC90.

The mark [1] stands for this setting: read-out: LUCIFERASE INFECTION ASSAY - IC50.

SMILES strings stand for the structures.

For the compound `COC(=O)c1ccc(/C=C2\Oc3cc(O)cc(C)c3C2=O)cc1`, the IC90 (as a rule, the concentration needed for an effect of 90%) is over 10.6 µM. For the same compound, the IC50 – broadly, the midpoint of a concentration-inhibition curve – (FFLUC_HILL_SLOPE 2.39, FFLUC_R_SQUARED 0.815, read-out: LUCIFERASE INFECTION ASSAY - IC50) is over 10.6 µM.

Turning to `Cc1ccc(-c2cs/c(=N\c3cccnc3)n2CCCn2ccnc2)cc1C`, the concentration for an effect of 90% (IC90) is over 10 µM. Where the note is “HEPG2TOX_HILL_SLOPE 0.267, HEPG2TOX_R_SQUARED 0.885, PBLUC_HILL_SLOPE 2.25, PBLUC_R_SQUARED 0.462, read-out: LUCIFERASE INFECTION ASSAY - IC50”, the IC50 was 5.5 µM.

Consider `COc1cc(-c2nc3ccc(NC(=O)Nc4cccc(C(F)(F)F)c4)cn3n2)cc(OC)c1OC`, for which the IC90 was determined as 8.43 µM. Moreover, the IC50 (HEPG2TOX_HILL_SLOPE 15.4, HEPG2TOX_R_SQUARED 0.156, PBLUC_HILL_SLOPE 4.31, PBLUC_R_SQUARED 0.169, read-out: LUCIFERASE INFECTION ASSAY - IC50) was determined as 5.06 µM.

As for `OC(CNCC1COc2ccccc2C1)COc1ccc(Cl)cc1Cl` (centres undefined), the IC90 is over 10 µM. The half-inhibitory concentration (IC50) under setting [1] was over 10 µM.

For `Cc1cc(-c2cn3c(-c4ccncc4)cnc3cn2)cc(C)c1O`, the IC90 worked out at 10 µM. In addition, where the note is “PBLUC_HILL_SLOPE 18.9, PBLUC_R_SQUARED 0.365, read-out: LUCIFERASE INFECTION ASSAY - IC50”, the IC50 was determined as 8.93 µM.

Consider `O/N=C(\c1ccc(Cl)cc1)c1cc2ccccc2o1`, for which the IC90 was over 12.1 µM. For the same compound, where the note is “PBLUC_HILL_SLOPE 1.16, PBLUC_R_SQUARED 0.26, read-out: LUCIFERASE INFECTION ASSAY - IC50”, the IC50 is 6.29 µM.

On to `Cc1ccc(-c2nnc(N/N=C3/C=C(c4ccccc4)C(O)(c4ccccc4)C3)c3ccccc23)cc1C` (centres undefined), for which the 90% effect concentration (IC90) is over 10 µM. Further, the half-maximal inhibitory concentration (IC50) (FFLUC_HILL_SLOPE 18, FFLUC_R_SQUARED 0.659, PBLUC_HILL_SLOPE 2.04, PBLUC_R_SQUARED 0.344, read-out: LUCIFERASE INFECTION ASSAY - IC50) turned out to be 6.48 µM.

Turning to `CN(C)c1ncnc2scc(-c3ccc(Cl)cc3)c12`, the IC90 was over 11.4 µM. Also, the IC50 under setting [1] was found to be 4.05 µM.

In the case of `Clc1ccc(/N=C/c2c(Sc3ccc(Cl)cc3)nc3sccn23)cc1`, the IC90 is 5.29 µM. For the setting “FFLUC_HILL_SLOPE 12.3, FFLUC_R_SQUARED 0.518, HEPG2TOX_HILL_SLOPE 2.77, HEPG2TOX_R_SQUARED 0.964, PBLUC_HILL_SLOPE 5.31, PBLUC_R_SQUARED 0.509, read-out: LUCIFERASE INFECTION ASSAY - IC50”, the 50% inhibitory concentration (IC50) was found to be 3.5 µM.

As to `Cc1ccc(Oc2ccc(OCC(=O)NCCNc3ccc4ccccc4c3)cc2)cc1`, the IC90 worked out at 6.61 µM. For the same compound, the concentration for half-maximal inhibition (IC50) (HEPG2TOX_HILL_SLOPE 2.47, HEPG2TOX_R_SQUARED 0.879, PBLUC_HILL_SLOPE 3.02, PBLUC_R_SQUARED 0.699, read-out: LUCIFERASE INFECTION ASSAY - IC50) amounted to 3.2 µM.

On to `CN(C)c1ccccc1-c1cnc2sc(NC3CCC(O)CC3)nn12` (centres undefined), for which the IC90 is over 9.23 µM. In addition, the IC50 under setting [1] stood at 8.17 µM.

For the compound `CC(C)Oc1ccc(S(=O)(=O)N2CCOCC2)cc1NC(=O)c1cc(-c2ccccc2)n[nH]1`, the 90% effect concentration (IC90) amounted to 4.44 µM. The IC50 (HEPG2TOX_HILL_SLOPE 13.1, HEPG2TOX_R_SQUARED 0.378, PBLUC_HILL_SLOPE 12.6, PBLUC_R_SQUARED 0.276, read-out: LUCIFERASE INFECTION ASSAY - IC50) is 3.73 µM.

On to `COc1ccc(C)cc1CCNc1cc(Cl)nc(N)n1`, for which the IC90 was over 10 µM. The 50% inhibitory concentration (IC50) (HEPG2TOX_HILL_SLOPE 10.5, HEPG2TOX_R_SQUARED 0.0746, read-out: LUCIFERASE INFECTION ASSAY - IC50) is over 10 µM.

On to `CC(C)(C)c1cccc(Nc2ncc(C(=O)c3ccccc3)[nH]2)c1`, for which the IC90 was over 10.3 µM. Under setting [1], the IC50 amounted to 8.64 µM.

Take `Cc1cc(NC(=O)c2ccc(CN3CCN(C/C=C/c4ccccc4)CC3)cc2)ccc1Cl`: the IC90 was over 10 µM. For the same compound, for the setting “HEPG2TOX_HILL_SLOPE 1.44, HEPG2TOX_R_SQUARED 0.929, PBLUC_HILL_SLOPE 2.64, PBLUC_R_SQUARED 0.29, read-out: LUCIFERASE INFECTION ASSAY - IC50”, the IC50 was determined as 4.99 µM.

Regarding `Cc1cc2c(cc1C)NC(c1c(O)ccc3ccccc13)C1C(=O)CC(C)(C)CC1=N2` (centres undefined), the IC90 was over 8 µM. Also, the half-inhibitory concentration (IC50) under setting [1] was 7.67 µM.

For `COC(=O)C1=C(Nc2ccc(OS(=O)(=O)c3ccc(F)cc3F)cc2)CSC1`, the 90% effect concentration (IC90) is over 7.72 µM. Under setting [1], the half-maximal inhibitory concentration (IC50) is over 7.72 µM.

As for `O=C(Nc1cccc(Cl)c1)n1nccc1-c1cc(-c2ccccc2)no1`, the IC90 was over 9.05 µM. The IC50 under setting [1] was over 9.05 µM.

As to `Cc1cc(S(=O)(=O)c2ccc(OC(=O)CC3CCCC3)c(C)c2)ccc1OC(=O)CC1CCCC1`, the IC90 is over 10 µM. The half-inhibitory concentration (IC50) (HEPG2TOX_HILL_SLOPE 0.0998, HEPG2TOX_R_SQUARED 0.18, PBLUC_HILL_SLOPE 0.103, PBLUC_R_SQUARED 0.0204, read-out: LUCIFERASE INFECTION ASSAY - IC50) is over 10 µM.

On to `CC(CC(=O)Nc1ccc(Cl)cc1)NCC(C)(C)N1CCOCC1` (centres undefined), for which the 90% effect concentration (IC90) is over 10 µM. In addition, the IC50 (PBLUC_HILL_SLOPE 1.7, PBLUC_R_SQUARED 0.0143, read-out: LUCIFERASE INFECTION ASSAY - IC50) was 4.7 µM.

For `CSc1cnc(-n2c(-c3ccc(C)cc3)cs/c2=N\C(=O)c2ccccc2)nc1`, the IC90 is over 10 µM. For the same compound, the IC50 (PBLUC_HILL_SLOPE 2.11, PBLUC_R_SQUARED 0.145, read-out: LUCIFERASE INFECTION ASSAY - IC50) was over 10 µM.

With `Fc1ccc2c(c1)C(Nc1nc(-c3cccnc3)nc3ccccc13)CCS2` (centres undefined), the 90% effect concentration (IC90) came to 4.27 µM. Moreover, the IC50 (FFLUC_HILL_SLOPE 1.8, FFLUC_R_SQUARED 0.403, PBLUC_HILL_SLOPE 13.2, PBLUC_R_SQUARED 0.43, read-out: LUCIFERASE INFECTION ASSAY - IC50) is 3.62 µM.

As for `Oc1ccccc1-c1cc(-c2ccccc2)nn1Cc1ccccc1`, the IC90 was 3.93 µM. Where the note is “PBLUC_HILL_SLOPE 14.4, PBLUC_R_SQUARED 0.373, read-out: LUCIFERASE INFECTION ASSAY - IC50”, the IC50 stood at 3.37 µM.

Regarding `CCCCNC(=O)c1c(NC(=O)c2ccc(Cl)cc2)nc2ccccn12`, the 90% effect concentration (IC90) was determined as 3 µM. Besides, the IC50 (FFLUC_HILL_SLOPE 14.7, FFLUC_R_SQUARED 0.115, HEPG2TOX_HILL_SLOPE 1.94, HEPG2TOX_R_SQUARED 0.747, PBLUC_HILL_SLOPE 14.3, PBLUC_R_SQUARED 0.4, read-out: LUCIFERASE INFECTION ASSAY - IC50) stood at 2.58 µM.

Consider `CC(C)n1ncc2c(C(=O)Nc3ccc(N4CCN(C)CC4)nc3)cc(-c3cccs3)nc21`, for which the IC90 was 8.59 µM. Moreover, the IC50 (HEPG2TOX_HILL_SLOPE 15.5, HEPG2TOX_R_SQUARED 0.177, PBLUC_HILL_SLOPE 20.4, 20.5, PBLUC_R_SQUARED 0.223, 0.421, read-out: LUCIFERASE INFECTION ASSAY - IC50) was 7.71 µM.

With `c1ccc(CCNCc2cn(-c3ccccc3)nc2-c2cccs2)cc1`, the IC90 is over 10 µM. Also, for the setting “PBLUC_HILL_SLOPE 3.19, PBLUC_R_SQUARED 0.352, read-out: LUCIFERASE INFECTION ASSAY - IC50”, the IC50 was 9.18 µM.

Take `Cc1cc(Oc2c(C)cccc2C)c2ccccc2n1`: the IC90 is over 12.5 µM. The half-inhibitory concentration (IC50) (PBLUC_HILL_SLOPE 0.514, PBLUC_R_SQUARED 0.0638, read-out: LUCIFERASE INFECTION ASSAY - IC50) is over 12.5 µM.

Turning to `NS(=O)(=O)c1ccc(N2CCOCC2)c(C(=O)NCCOc2ccc3ccccc3c2)c1`, the concentration for an effect of 90% (IC90) was over 10 µM. In addition, the IC50 under setting [1] is over 10 µM.

As for `O=C(O)c1ccc(N=C2C=C(NS(=O)(=O)c3ccc(Cl)cc3)c3ccccc3C2=O)cc1`, the concentration for an effect of 90% (IC90) is over 10 µM. The IC50 under setting [1] is over 10 µM.

For the compound `COc1ccc(-c2cnc(N)c(-c3ccc(O)c(OC)c3)c2)cn1`, the IC90 is 3.7 µM. For the same compound, where the note is “FFLUC_HILL_SLOPE 1.75, FFLUC_R_SQUARED 0.121, PBLUC_HILL_SLOPE 11, PBLUC_R_SQUARED 0.572, read-out: LUCIFERASE INFECTION ASSAY - IC50”, the IC50 came to 3.03 µM.

Turning to `COc1ccc(NS(=O)(=O)c2cc([N+](=O)[O-])ccc2N/N=C(\C)c2ccc(S(=O)(=O)NCc3ccco3)cc2)cc1`, the concentration for an effect of 90% (IC90) amounted to 4.99 µM. The IC50 (HEPG2TOX_HILL_SLOPE 4.01, HEPG2TOX_R_SQUARED 0.968, PBLUC_HILL_SLOPE 8.16, PBLUC_R_SQUARED 0.206, read-out: LUCIFERASE INFECTION ASSAY - IC50) amounted to 3.81 µM.

As to `Cc1ccc(CSc2nnc(OC(=O)N(C)C)n2-c2cccc(Cl)c2)cc1`, the IC90 was over 8.19 µM. Also, under “PBLUC_HILL_SLOPE 1.76, PBLUC_R_SQUARED 0.153, read-out: LUCIFERASE INFECTION ASSAY - IC50”, the IC50 was found to be 6.97 µM.

Consider `CC1CCN(CC(O)COC2CC(C)CC(C)(C)C2)CC1` (centres undefined), for which the IC90 is over 9.88 µM. Further, under setting [1], the IC50 is over 9.88 µM.

As to `Cc1ccccc1Nc1nc(N)nc(CSc2nc(=O)c3c(-c4cccs4)csc3[nH]2)n1`, the concentration for an effect of 90% (IC90) was over 10 µM. Further, under setting [1], the IC50 was over 10 µM.

In the case of `CC(C)OCCCn1c(S/C=C/c2ccc([N+](=O)[O-])o2)nc2ccccc2c1=O`, the 90% effect concentration (IC90) was over 10 µM. Where the note is “FFLUC_HILL_SLOPE 0.75, FFLUC_R_SQUARED 0.0694, read-out: LUCIFERASE INFECTION ASSAY - IC50”, the half-maximal inhibitory concentration (IC50) is over 10 µM.

Consider `Cc1c(C(=O)Nc2nc3c(s2)CCCCC3)[nH]c2c1C(=O)CC(C)(C)C2`, for which the IC90 is over 10 µM. For the setting “PBLUC_HILL_SLOPE 1.1, PBLUC_R_SQUARED 0.304, read-out: LUCIFERASE INFECTION ASSAY - IC50”, the IC50 stood at 2.21 µM.

With `NC(Cc1ccc(F)cc1)c1csc(Nc2nncc3ccccc23)n1` (centres undefined), the IC90 is over 9.03 µM. In addition, the IC50 under setting [1] is over 9.03 µM.

Source of the values: ChEMBL document CHEMBL4483862, “Open-source discovery of chemical leads for next-generation chemoprotective antimalarials” (2018).
